Laboratory results reported in ChEMBL document CHEMBL1135124, “Novel bicyclic oxazolone derivatives as anti-angiogenic agents” (Bioorg Med Chem Lett, 2002).

Tests used:
A-431 = experiment: Inhibitory activity against proliferation of human epidermoid carcinoma (A431) cells; format: functional, cell-based
Gallus gallus = organism: Gallus gallus; experiment: Anti-angiogenic activity was assessed by inhibition of the vascular growth in the chick embryo chorioallantoic membrane (CAM assay) at 125 nM; format: functional, tissue-based
L1210 = experiment: Inhibitory activity against proliferation of murine leukemia (L1210) cells; format: functional, cell-based; conditions: Mus musculus

IC50 (A-431) [µM] | IC50 (L1210) [µM] | Compound | inhibition (Gallus gallus) [%]
81 | 81 | CCCCC/C=C/[C@@]1(C)O[C@@H]2OC(=O)N(C(=O)CCl)[C@@H]2CC1=O | 50
5 | 8 | CO[C@@H]1[C@H](OC(=O)/C=C/C=C/C=C/C=C/C(=O)O)CC[C@]2(CO2)[C@H]1[C@@]1(C)O[C@@H]1CC=C(C)C [FUMAGILLIN] | 85
93 | 89 | CCCCCC1OC1[C@@]1(C)O[C@@H]2OC(=O)N(C(=O)CCl)[C@@H]2C[C@@]12CO2 (stereo partly drawn) | 
75 | > 100 | CCCCCC#C[C@@]1(C)O[C@@H]2OC(=O)N(C(=O)CCl)[C@@H]2C[C@H]1O | 25
5 | 32 | CCCCCC#C[C@]1(C)O[C@@H]2OC(=O)N(C(=O)CCl)[C@@H]2CC1=O | 50
52 | > 100 | CCCCCC#C[C@@]1(C)O[C@@H]2OC(=O)N(C(=O)CCl)[C@@H]2C[C@@H]1O | 40
78 | 28 | CCCCCCC[C@@]1(C)O[C@@H]2OC(=O)N(C(=O)CCl)[C@@H]2CC1=O | 60
116 | 193 | CCCCCC1OC1[C@@]1(C)O[C@@H]2OC(=O)N(C(=O)CCl)[C@@H]2CC1=O (stereo partly drawn) | 58
56 | 27 | C[C@]1(C#CCCCCc2ccccc2)O[C@@H]2OC(=O)N(C(=O)CCl)[C@@H]2CC1=O | 60
33 | 22 | CCCCCC1OC1[C@@]1(C)O[C@@H]2OC(=O)N(C(=O)CCl)[C@@H]2C[C@]12CO2 (stereo partly drawn) | 19
64 | 74 | COC#C[C@@]1(C)O[C@@H]2OC(=O)N(C(=O)CCl)[C@@H]2CC1=O | 60
47 | 31 | CCCCCC#C[C@@]1(C)O[C@@H]2OC(=O)N(C(=O)CCl)[C@@H]2CC1=O | 70
79 | 96 | CCCCCCC[C@H]1O[C@@H]2OC(=O)N(C(=O)CCl)[C@@H]2CC1=O | 87
